Assay results published in EP1137645B1, “ALPHA-METHYLBENZYL-CONTAINING THIOUREA INHIBITORS OF HERPES VIRUSES CONTAINING A […] GROUP” (Wyeth, priority 1998, dated 2000).
Converted amounts (≈) assume the structure as drawn. Read-outs that look alike come from different tables or passages of the source.

How the values were obtained:
[1] = tested on: HCMV recombinant mutant virus whose genome contains the prokaryotic beta-glucuronidase gene; assay: microbe, parasite or virus in culture; format: cell-based, human cytomegalovirus; details: Human betaherpesvirus 5, Fibroblast
Source text: Microtiter plate assay. Ninety-six well plate cultures of human foreskin fibroblasts are infected in the presence of inhibitor compound with a HCMV recombinant mutant virus whose genome contains the prokaryotic beta-glucuronidase gene (Jefferson, R. A., S. M. Burgess, and D. Hirsh. 1986. Beta-glucuronidase from Escherichia coli as a gene fusion marker. Proc. Natl. Acad. Sci. USA 83:8447-8451) whose expression is controlled by a viral promoter. An example of such a virus is RV145 (Jones, T. R., V. P. Muzithras, and Y. Gluzman. 1991. Replacement mutagenesis of the human cytomegalovirus genome: US10 and US11 gene products are nonessential. J. Virol. 65:5860-5872). Since it is under the control of a viral promoter, beta-glucuronidase expression is an indirect indicator of growth and replication of HCMV in this assay. At 96 hours post-infection, the infected cell lysates are prepared (using 50mM sodium phosphate [pH7.0] containing 0.1% Triton X-100 and 0.1% sarkosyl) and assayed for beta-glucuronidase activity using a substrate for the enzyme which when cleaved yields either a product which can be measured colorimetrically in a spectrophotometer or fluorescently in a microfluorimeter. Examples of such substrates are p-nitrophenyl-beta-D-glucuronide and methylumbelliferylglucuronide, respectively. The presence of an antiviral compound is indicated by the reduced expression of the HCMV genome resident beta-glucuronidase gene, compared to the absence of inhibitor. […] Data from this assay generated using varying amounts of inhibitor compound is also used to estimate the IC50 of an inhibitor compound.

HSV- I = assay: HSV antiviral (ELISA) assay; format: cell-based; details: read-out: IC50 (ug/ml) HSV
Description: Vero cells (ATCC #CCL-81) are plated on 96-well tissue culture plates at 3.5x10^4 cells per 100µl tissue culture DMEM (Dulbecco's modified Eagle media) supplemented with 2% fetal bovine serum (FBS) in each well. After overnight incubation @ 37°C (in 5% CO2) and 30 minutes prior to infection with HSV- I (multiplicity of infection equal to 0.006), cells are either untreated, or treated with test compound (multiple concentrations) or reference standard drug control. After approximately 24 hours post-infection incubation @ 37°C (in 5% CO2), cells are fixed for ELISA assay. The primary antibody is murine anti-HSV glycoprotein D monoclonal primary antibody and the secondary antibody is goat anti-mouse IgG linked to β-galactosidase. Thus the extent of viral replication is determined by assessing β-galactosidase activity by quantifying the generation of the 4-methyl umbelliferone fluorescent cleavage product after addition of the methyl umbelliferyl-β-D-galactoside (Sigma #M1633) substrate on a microfluorimeter (365nm for excitation and 450nm for emission). Antiviral activity (IC50) of the test compound is determined by comparing the flourescence obtained in absence of compound to that obtained in the presence of compound.

VZV strain Ellen = assay: VZV antiviral (ELISA) assay; format: cell-based
Description: For the generation of stock VZV to be used in the assay, VZV strain Ellen (ATCC #VR-1367) is used to infect human foreskin fibroblast (HFF) cells at low multiplicity (less than 0.1) and incubated overnight at 37°C in 5% CO2. After the overnight incubation, the mixture of uninfected and VZV-infected HFF infected cells are then harvested and added to each well of 96-well plates (3.5x10^4 cells in 100 µl DMEM supplemented with 2% FBS) which contain test compound or the reference standard drug control (in 100µl DMEM supplemented with 2% FBS per well). These cells are incubated for three days at 37°C in 5% CO2, then fixed for ELISA assay. The primary antibody is murine anti-VZV glycoprotein II monoclonal antibody (Applied Biosystems, Inc. #13-145-100) and the secondary antibody is goat anti-mouse IgG linked to β-galactosidase. Thus the extent of viral replication is determined by assessing β-galactosidase activity by quantifying the generation of the 4-methyl umbelliferone fluorescent cleavage product after addition of the methyl umbelliferyl-β-D-galactoside (Sigma #M1633) substrate on a microfluorimeter (365nm for excitation and 450nm for emission). Antiviral activity (IC50) of the test compound is determined by comparing the flourescence obtained in absence of compound to that obtained in the presence of compound.

[2] = read-out: IC50 ug/ml HCMV, HCMV, human foreskin fibroblasts

SMILES | IC50 [1, 2] [µg/mL] | IC50 (HSV- I; Vero) [µg/mL] | also measured
O=C(Nc1ccc(NC(=S)NCc2cccc(I)c2)cc1)c1ccccc1F [Example 661, 2-Fluoro-N-{4-[3-(3-iodo-benzyl)-thioureido]-phenyl}-benzamide] | – | – | IC50 ([1]; read-out: IC50 ug/ml HCMV): > 0.5 µg/mL; IC50 (HSV- I; HSV- I, Vero cells, ELISA): > 10 µg/mL
CN1CCN(c2ccc(CNC(=S)Nc3ccc(NC(=O)c4ccccc4F)cc3)cc2C(F)(F)F)CC1 [Example 687, 2-Fluoro-N-(4-{3-[4-(4-methyl-piperazin-1-yl)-3-trifluoromethyl-benzyl]-thioureido}-phenyl)-benzamide] | > 0.5 | 1.2 (≈ 2.2 µM) | –
CN(C)c1cc(CCNC(=S)Nc2ccc(NC(=O)c3ccccc3F)cc2)cc(C(F)(F)F)c1 [Example 653, N-(4-{3-[2-(3-Dimethylamino-5-trifluoromethyl-phenyl)-ethyl]-thioureido}-phenyl)-2-fluoro-benzamide] | > 0.5 | > 10 | –
O=C(Nc1ccc(NC(=S)NCCOc2ccc(I)cc2)cc1)c1ccccc1F [Example 696, 2-Fluoro-N-(4-{3-[2-(4-iodo-phenoxy)-ethyl]-thioureido}-phenyl)-benzamide] | – | – | IC50 ([1]; read-out: IC50 ug/ml HCMV): > 3 µg/mL; IC50 (HSV- I; HSV- I, Vero cells, ELISA): 10 µg/mL (≈ 18.7 µM)
O=C(Nc1ccc(NC(=S)NCCOc2cc(Cl)cc(Cl)c2)cc1)c1ccccc1F [Example 664, N-(4-{3-[2-(3,5-Dichloro-phenoxy)-ethyl]-thioureido}-phenyl)-2-fluoro-benzamide] | > 0.5 | 10 (≈ 20.9 µM) | –
O=C(Nc1ccc(NC(=S)NCCSc2cccc(Br)c2)cc1)c1ccccc1F [Example 680, N-(4-{3-[2-(3-Bromo-phenylsulfanyl)-ethyl]-thioureido}-phenyl)-2-fluoro-benzamide] | > 0.5 | > 10 | –
CC(C)(NC(=S)Nc1ccc(NC(=O)c2ccccc2F)cc1)c1ccccc1 [Example 727, 2-Fluoro-N-{4-[3-(1-methyl-1-phenyl-ethyl)-thioureido]-phenyl}-benzamide] | – | > 10 | –
CC(C)(C)c1ccc(CNC(=S)Nc2ccc(NC(=O)c3ccccc3F)cc2)cc1 [Example 724, N-{4-[3-(4-tert-Butyl-benzyl)-thioureido]-phenyl}-2-fluoro-benzamide] | – | > 10 | –
O=C(Nc1ccc(NC(=S)NCCSc2ccccc2)cc1)c1ccccc1F [Example 656, 2-Fluoro-N-{4-[3-(2-phenylsulfanyl-ethyl)-thioureido]-phenyl}-benzamide] | > 0.5 | 5 (≈ 11.7 µM) | –
O=C(Nc1ccc(NC(=S)Nc2ccc(Cl)cc2)cc1)c1ccccc1F [Example 946, N-{4-[3-(4-Chloro-phenyl)-thioureido]-phenyl}-2-fluoro-benzamide] | > 10 | > 10 | –
O=C(Nc1ccc(NC(=S)Nc2cccc(Cl)c2)cc1)c1ccccc1F [Example 944, N-{4-[3-(3-Chloro-phenyl)-thioureido]-phenyl}-2-fluoro-benzamide] | 3 (≈ 7.5 µM) | > 10 | –
O=C(Nc1ccc(NC(=S)Nc2cccc(Cl)c2Cl)cc1)c1ccccc1F [Example 927, N-{4-[3-(2,3-Dichloro-phenyl)-thioureido]-phenyl}-2-fluoro-benzamide] | 2 (≈ 4.6 µM) | 5 (≈ 11.5 µM) | –
Cc1cc(CCNC(=S)Nc2ccc(NC(=O)c3ccccc3F)cc2)ccc1N(C)C [Example 673, N-(4-{3-[2-(4-Dimethylamino-3-methyl-phenyl)-ethyl]-thioureido}-phenyl)-2-fluoro-benzamide] | > 0.5 | 7 (≈ 15.5 µM) | –
CC(NC(=S)Nc1ccc(NC(=O)c2ccc(N(C)C)cc2)cc1)c1ccc(F)cc1 (centres unmarked) [Example 765, 4-Dimethylamino-N-(4-{3-[1-(4-fluoro-phenyl)-ethyl]-thioureido}-phenyl)-benzamide] | 2.3 (≈ 5.27 µM) | 10 (≈ 22.9 µM) | –
O=C(Nc1ccc(NC(=S)NC(c2ccccc2)c2ccc(F)cc2)cc1)c1ccccc1F (centres unmarked) [Example 772, 2-Fluoro-N-(4-{3-[(4-fluoro-phenyl)-phenyl-methyl]-thioureido}-phenyl)-benzamide] | 0.35 (≈ 0.739 µM) | > 10 | –
CCC(NC(=S)Nc1ccc(NC(=O)c2ccccc2F)cc1)c1ccc(F)cc1 (centres unmarked) [Example 771, 2-Fluoro-N-(4-{3-[1-(4-fluoro-phenyl)-propyl]-thioureido}-phenyl)-benzamide] | 0.4 (≈ 0.94 µM) | > 10 | –
O=C(Nc1ccc(NC(=S)NCc2ccc(F)c(Cl)c2)cc1)c1ccccc1F [Example 677, N-{4-[3-(3-Chloro-4-fluoro-benzyl)-thioureido]-phenyl}-2-fluoro-benzamide] | > 0.5 | > 10 | –
Cc1cc(C)cc(CNC(=S)Nc2ccc(NC(=O)c3ccccc3F)cc2)c1 [Example 725, N-{4-[3-(3,5-Dimethyl-benzyl)-thioureido]-phenyl}-2-fluoro-benzamide] | – | > 10 | –
COc1ccccc1C(=O)Nc1ccc(NC(=S)NC(C)c2ccc(F)cc2)cc1 (centres unmarked) [Example 752, N-(4-{3-(1-(4-Fluoro-phenyl)-ethyl]-thioureido}-phenyl)-2-methoxy-benzamide] | > 0.5 | > 10 | –
O=C(Nc1ccc(NC(=S)NCc2ccc(F)c(F)c2)cc1)c1ccccc1F [Example 672, N-{4-[3-(3,4-Difluoro-benzyl)-thioureido]-phenyl}-2-fluoro-benzamide] | – | – | IC50 ([1]; read-out: IC50 ug/ml HCMV): > 0.5 µg/mL; IC50 (HSV- I; HSV- I, Vero cells, ELISA): > 10 µg/mL
O=C(Nc1ccc(NC(=S)NCCc2ccc(Cl)c(Cl)c2)cc1)c1ccccc1F [Example 719, N-(4-{3-[2-(3,4-Dichloro-phenyl)-ethyl]-thioureido}-phenyl)-2-fluoro-benzamide] | > 0.5 | > 10 | –
O=C(Nc1ccc(NC(=S)NCCOc2cccc(Cl)c2)cc1)c1ccccc1F [Example 666, N-(4-{3-[2-(3-Chloro-phenoxy)-ethyl]-thioureido}-phenyl)-2-fluoro-benzamide] | > 0.5 | 10 (≈ 22.5 µM) | –
O=C(Nc1ccc(NC(=S)NCCOc2ccc(Br)cc2)cc1)c1ccccc1F [Example 695, N-(4-{3-[2-(4-Bromo-phenoxy)-ethyl]-thioureido}-phenyl)-2-fluoro-benzamide] | > 3 | > 10 | –
O=C(Nc1ccc(NC(=S)NCc2cc(C(F)(F)F)ccc2F)cc1)c1ccccc1F [Example 669, 2-Fluoro-N-{4-[3-(2-fluoro-5-trifluoromethyl-benzyl)-thioureido]-phenyl}-benzamide] | – | – | IC50 ([1]; read-out: IC50 ug/ml HCMV): > 0.5 µg/mL; IC50 (HSV- I; HSV- I, Vero cells, ELISA): > 10 µg/mL
O=C(Nc1ccc(NC(=S)Nc2cc(N3CCOCC3)cc(C(F)(F)F)c2)cc1)c1ccccc1F [Example 568, 2-Fluoro-N-{4-[3-(3-morpholin-4-yl-5-trifluoromethyl-phenyl)-thioureido]-phenyl}-benzamide] | > 0.5 | – | IC50 (VZV strain Ellen; Human alphaherpesvirus 3, HFF, read-out: IC50 (ug/ml) VZV, VZV strain Ellen, HFF cells, ELISA): 2.3 µg/mL (≈ 4.44 µM)
O=C(Nc1ccc(NC(=S)NCCc2ccccc2F)cc1)c1ccccc1F [Example 721, 2-Fluoro-N-(4-{3-[2-(2-fluoro-phenyl)-ethyl]-thioureido}-phenyl)-benzamide] | – | – | IC50 (HSV- I; HSV- I, Vero cells, ELISA): > 10 µg/mL
C[C@H](NC(=S)Nc1ccc(NC(=O)c2nccc3ccccc23)cc1)c1ccc(Cl)cc1 [Example 1109, Isoquinoline-1-carboxylic acid (4-{3-[(1S)-1-(4-chloro-phenyl)-ethyl]-thioureido) -phenyl)-amide] | – | – | IC50 (VZV strain Ellen; Human alphaherpesvirus 3, VZV strain Ellen, HFF cells, ELISA, read-out: IC50 (ug/ml) VZV): 0.03 µg/mL (≈ 0.0651 µM); IC50 ([1]; read-out: IC50 ug/ml HCMV): 4.4 µg/mL (≈ 9.54 µM)
